Test results: patent US20050232911A1, “Prevention and treatment of metabolic abnormalities associated with excess intramyocellular lipid” (priority 2004, published 2005)

Columns and labels:
[1] = tested on: whole animal models; conditions: cited from earlier work
[2] = tested on: obese Zucker rats; assay: Renal histology / kidney injury; format: in vivo, rat; conditions: chronic administration, secondary benefit
Protocol: Forty-five male obese Zucker rats are obtained at 5 weeks of age (Charles is River) and randomized into three groups of 15 each. Namely, the forty-five male obese Zucker rats are randomized into Control Group A, Control Group B, and L-Carn Group, which each consists of 15 rats. Control Group A and Control Group B receive normal rat chow throughout the study. The 15 Zucker rats in L-Carn Group receive 100 mg/kg bodyweight (BWt) of levocarnitine, daily, in their drinking water or mixed with their food. At 6 weeks of age, all groups are placed in metabolic cages for 24-hours to determine baseline protein and creatinine excretion rates, whereby proteinuria can be determined. Systolic blood pressure measurements are obtained by tailcuff plethysmography and a sample of blood is obtained from the tail for determination of fasting plasma creatinine, insulin, blood glucose, triglycerides, and cholesterol. These measurements are subsequently repeated at 12, 18, and 24 weeks of age. […]
As one example, the PAS stained kidney sections are e.g. observed, examined, studied, and/or analyzed with light microscopy or other suitable means, while considering suitable observational criteria which includes, but is not limited to, a suitable glomerular sclerosis index, a suitable tubulointerstitial index, a suitable mesangial matrix index, and/or others. […]

[3] = tested on: Type II Diabetics; conditions: acute administration; cited from earlier work
[4] = tested on: canine cardiac tissue; conditions: cited from earlier work
[5] = carnitine treatment; cited from earlier work
[6] = tested on: obese Zucker rats; assay: Insulin sensitivity by euglycemic-hyperinsulinemic clamp technique; format: in vivo, rat; conditions: chronic administration
Protocol: Forty-five male obese Zucker rats are obtained at 5 weeks of age (Charles is River) and randomized into three groups of 15 each. Namely, the forty-five male obese Zucker rats are randomized into Control Group A, Control Group B, and L-Carn Group, which each consists of 15 rats. Control Group A and Control Group B receive normal rat chow throughout the study. The 15 Zucker rats in L-Carn Group receive 100 mg/kg bodyweight (BWt) of levocarnitine, daily, in their drinking water or mixed with their food. At 6 weeks of age, all groups are placed in metabolic cages for 24-hours to determine baseline protein and creatinine excretion rates, whereby proteinuria can be determined. […] At 6 weeks of age, the Zucker rats of Control Group A are anesthetized with sodium pentobarbital (50-60 mg/kg BWt intraperitoneally) and insulin sensitivity is determined using the euglycemic-hyperinsulinemic clamp technique, explained elsewhere herein. […] Blood glucose is determined every 15 minutes over a 120 minute baseline period. […] Blood glucose is analyzed every 5 minutes from a catheter in the femoral artery using a glucometer (Freestyle®, test volume required=0.3 μL) and the rate of D-glucose infused is adjusted to maintain plasma glucose at ˜5 mol/L. Whole body insulin sensitivity is calculated at the mean glucose infusion rate during the last 60 minutes of the euglycemic-hyperinsulinemic clamp study. […]

[7] = tested on: obese Zucker rats; assay: Intramyocellular lipid content (oil red O staining of adductor magnus muscle) after chronic levocarnitine; format: in vivo, rat; conditions: obese Zucker rats with metabolic syndrome; chronic administration, 100 mg/kg bodyweight daily in drinking water or food
Protocol: Forty-five male obese Zucker rats are obtained at 5 weeks of age (Charles is River) and randomized into three groups of 15 each. Namely, the forty-five male obese Zucker rats are randomized into Control Group A, Control Group B, and L-Carn Group, which each consists of 15 rats. Control Group A and Control Group B receive normal rat chow throughout the study. The 15 Zucker rats in L-Carn Group receive 100 mg/kg bodyweight (BWt) of levocarnitine, daily, in their drinking water or mixed with their food. […] After determining insulin sensitivity, the adductor magnus muscle of the left hind leg is isolated and the anterior and posterior ends tied with 3-O silk and cut outside the ties. The muscle is placed across a wooden stick, slightly wider than the muscle section is long, and tied in place to preserve its normal amount of stretch, then immediately immersed in isopentane cooled in liquid nitrogen. […] The lipid content of the sections is determined by using histochemical staining. One such suitable histochemical staining process includes using lipid-soluble dye to dye respective sections of tissue which are then observed and/or other wise analyzed. […] Ones of the three muscle fiber types are examined and lipid concentrations are determined respectively, pursuant to techniques and methods well known to those skilled in the art. […]

[8] = cited from earlier work
[9] = tested on: obese Zucker rat; conditions: treated rats; cited from earlier work

In the case of `CCOC(=O)[C@@]1(CCCCCCOc2ccc(Cl)cc2)CO1` [Etomoxir], the intramyocellular lipid [1] is given as “rise in intramyocellular lipid” and the “whole body insulin resistance” value [1] is given as “increasing degrees of whole body insulin resistance”.

For `C[N+](C)(C)CC(O)CC(=O)[O-]` (centres unmarked) [levocarnitine, 3-hydroxy-4-N trimethylammonium butyrate], the kidney injury [2] is listed as “reduction of kidney injury”, the “glucose storage and oxidation” value [3] is listed as “both glucose storage and oxidation” and the “whole body glucose uptake” value [3] is listed as “significantly increased whole body glucose uptake”. The “elution of long chain acyl CoA esters” value [4] was “ability of levocarnitine to elute long chain acyl CoA esters has been demonstrated”, the “urinary excretion of long chain carnitine esters” value [5] was “increased urinary excretion of long chain carnitine esters” and the insulin sensitivity ([6]; obese Zucker rats with metabolic syndrome, 100 mg/kg bodyweight daily) was “improves insulin sensitivity”. The systemic insulin concentrations ([6]; obese Zucker rats) was “lower systemic insulin concentrations” and the intramyocellular lipid concentration [7] was “decreases the intramyocellular lipid concentration”.

In the case of `CN(CCOc1ccc(CC2SC(=O)NC2=O)cc1)c1ccccn1` (centres unmarked) [roziglitazone], the side effects ([8]; in vivo) is given as “weight gain”, the “concentration of IMCL” value [9] is given as “reduce the concentration of IMCL” and the insulin sensitivity [9] is given as “marked improvement in insulin sensitivity”.

In the case of `Cc1c(C)c2c(c(C)c1O)CCC(C)(COc1ccc(CC3SC(=O)NC3=O)cc1)O2` (centres unmarked) [troglitazone], the hepatotoxicity ([8]; removed from the market) is given as “excessive hepatotoxicity”.
